8 molecules from US11110091B2, “Modulators of toll-like receptors” (Gilead Sciences, Inc., priority 2008, dated 2021) can be followed below.

The test system of the experiment is human Peripheral Blood Mononuclear Cell (PMBC). Put plainly: PBMC assay: cytokine (IFN-α) stimulation at 24 hours. Format: cell-based. The following applies: lowest concentration stimulating IFN-α production at least 3-fold over background, Luminex, read-out: IFN MEC. On the procedure:
Assays were conducted to determine cytokine stimulation at 24 hours from human Peripheral Blood Mononuclear Cell (PMBC) using the compounds of the present invention. The assays were run in duplicate, with 8-point, half-log dilution curves. The compounds of the present invention were diluted from 10 mM DMSO solution. Cell supernatants are assayed directly for IFNα and 1:10 dilution for TNFα. The assays were performed in a similar fashion as described in Bioorg. […] Specifically, cryo-preserved PBMCs were thawed and seeded 96 well plates with 750,000 cells/well in 190 μL/well cell media. The PBMCs were then incubated for 1 hour at 37° C. at 5% CO2. Then, the compounds of the present invention were added in 10 μL cell media at 8 point, half-log dilution titration. The plates were incubated at 37° C. and 5% CO2 for 24 hours and then spinned at 1200 rpm for 10 min, which was followed by collecting supernatant and storing the same at −80° C. Cytokine secretion was assayed with Luminex and Upstate multi-plex kits, using a Luminex analysis instrument. The IFN-α MEC value for a compound was the lowest concentration at which the compound stimulated IFN-α production at least 3-fold over the background as determined using the assay method above.
For `Nc1nc(OCCCCO)nc2c1NC(=O)CN2Cc1cccc(CN2CCCC2)c1` [Example 27], the minimal effective concentration was greater than 0.03 µM. Consider `Nc1nc(O)nc2c1NC(=O)CN2Cc1cccc(CN2CCCC2)c1` [Example 63], for which the minimal effective concentration was greater than 0.03 µM. Regarding `CCCCOc1nc(N)c2c(n1)N(Cc1ccc(C(F)(F)F)nc1)CC(=O)N2` [Example 117], the minimal effective concentration was greater than 0.03 µM. As for `CCCCOc1nc(N)c2c(n1)N(Cc1ccnc(N3CCOCC3)c1)CC(=O)N2` [Example 66], the minimal effective concentration was greater than 0.03 µM. Consider `Nc1nc(OCC2CCOC2)nc2c1NC(=O)CN2Cc1cccc(CN2CCCC2)c1` (centres unmarked) [Example 17], for which the minimal effective concentration is greater than 0.03 µM. In the case of `Nc1nc(OCC2CCCO2)nc2c1NC(=O)CN2Cc1cccc(CN2CCCC2)c1` (centres unmarked) [Example 29], the minimal effective concentration was greater than 0.03 µM. With `CS(=O)(=O)CCOc1nc(N)c2c(n1)N(Cc1cccc(CN3CCCC3)c1)CC(=O)N2` [Example 20], the minimal effective concentration was greater than 0.03 µM. The result for `Nc1nc(NC2CCC2)nc2c1NC(=O)CN2Cc1cccc(CN2CCCC2)c1` [Example 40] reads no more than 0.03 µM.
